Data published in patent US20240140947A1, “COMPOUND FOR THE TREATMENT OF CANCER” (priority 2022, published 2024).

Assays:
Observed human half-life = type: in vivo
[1] = Rat i.v. pharmacokinetic study; type: in vivo
Description: Rat PK studies were done at Pfizer (Groton, CT) or BioDuro Pharmaceutical Product Development Inc. (Shanghai, PRC); Jugular vein-cannulated male Wistar-Hannover rats were purchased from Charles River Laboratories, Inc. (Wilmington, MA) or Vital River (Beijing, China) and were typically 7-10 weeks of age at the time of dosing. During the pharmacokinetic studies all animals were housed individually. Access to food and water was provided ad libitum. Compounds were administered i.v. via the tail vein (n=2 or 3), dosed as a 1 mg/ml solution using standard compatible excipients at 1 mL/kg for a resulting dose of […]. Serial blood samples were collected via the jugular vein cannula at predetermined timepoints after dosing. Animals were monitored for pain or distress throughout the study, with at least daily monitoring during normal husbandry prior to study start. At the completion of the study, animals were euthanized by overdose of inhaled anesthesia followed by exsanguination. […] Plasma samples from the animal PK studies were processed using protein precipitation with acetonitrile: methanol (1:1) containing internal standard verapamil followed by quantitation by LC-MS/MS against a standard curve prepared in blank plasma. Pharmacokinetic parameters were calculated using noncompartmental analysis (Watson v.7.5, Thermo Scientific).

[2] = Human blood-to-plasma partition ratio (BPR); type: in vitro ADME; set-up: dose or concentration left out as unconfirmed; settings: fresh whole blood, 37° C.
Description: Compound 1 has been evaluated according to methods well known in the art, for its ability to partition between human plasma and blood. Based on the observed partitioning and plasma protein binding, the blood binding was estimated based on human blood unbound fraction (fub)=human plasma unbound fraction (fup)/human blood-to-plasma partition ratio (BPR). […] At the end of the incubations, blood and plasma samples were matrix-matched and analyzed by LC-MS/MS. BPR was calculated by dividing the blood and plasma measure peak areas.

[3] = Preliminary assessment of metabolism (hepatocytes, human liver microsomes, plasma after oral dosing); type: in vitro ADME, rat, rabbit; settings: hepatocytes of six species, plasma from monkey, dog and mouse
Description: A preliminary assessment of the metabolism of Compound 1 was conducted using mouse, rat, rabbit, dog, monkey and human hepatocytes; human liver microsomes; plasma from monkey, dog and mouse studies following oral dosing. The primary metabolic pathway of Compound 1 was oxidation.

CDK4/Cyclin D1 = molecular target: T1, CDK4/Cyclin D1 (Homo sapiens, UniProt P11802); experiment: CDK4/Cyclin D1 mobility shift assay; type: biochemical; settings: geometric mean, 3.5 mM ATP
T1 construct: 2007 E1/2008+PO4
T1 sequence (P11802 whole entry): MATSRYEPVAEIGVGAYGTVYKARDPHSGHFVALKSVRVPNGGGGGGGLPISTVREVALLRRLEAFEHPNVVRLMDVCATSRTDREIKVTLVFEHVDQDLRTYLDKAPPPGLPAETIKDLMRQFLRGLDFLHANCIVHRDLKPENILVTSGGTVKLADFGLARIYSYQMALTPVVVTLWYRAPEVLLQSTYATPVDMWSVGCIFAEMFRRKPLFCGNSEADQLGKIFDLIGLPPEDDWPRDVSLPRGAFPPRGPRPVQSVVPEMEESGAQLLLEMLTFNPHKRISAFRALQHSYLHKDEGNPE
T1 sequence (P24385 whole entry partner): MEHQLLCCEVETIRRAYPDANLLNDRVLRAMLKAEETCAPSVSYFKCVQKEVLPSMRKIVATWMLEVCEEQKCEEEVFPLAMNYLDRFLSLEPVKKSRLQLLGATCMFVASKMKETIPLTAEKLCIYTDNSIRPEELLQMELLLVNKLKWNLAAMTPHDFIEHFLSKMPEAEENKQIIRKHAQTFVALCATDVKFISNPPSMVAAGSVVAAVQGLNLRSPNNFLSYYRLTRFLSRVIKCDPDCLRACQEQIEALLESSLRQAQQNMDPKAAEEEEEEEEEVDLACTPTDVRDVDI
Description: The mobility shift assay electrophoretically separates the fluorescently labeled peptides (substrate and phosphorylated product) following the kinase reaction. Both substrate and product are measured and the ratio of these values is used to generate % Conversion of substrate to product by the LabChip EZ Reader.
K, determinations were made from a plot of the fractional velocity as a function of inhibitor concentration fit to the Morrison equation with the enzyme concentration as a variable.

Row | Compound | observed human t1/2 (Observed human half-life) [h] | half-life (Observed human half-life; in vivo, read-out: observed human t1/2 (converted)) [h] | Rat Vdss unbound: (Rat plasma Vdss/rat plasma fu) [1] [L/kg] | Vd ([1]; rat, plasma, iv, 2 mg/kg, male Wistar-Hannover rats, read-out: Rat Vdss) [L/kg] | blood plasma ratio at 1 h [2] | primary metabolic pathway [3] | Ki (CDK4/Cyclin D1) [nM]
1 | C[C@@]1(O)CCC[C@H]1n1c(=O)c(C(F)F)cc2cnc(NC3CCN(S(C)(=O)=O)CC3)nc21 [Compound 2, reference compound] | ~3 | 3 |  |  |  |  | 
2 | C[C@@]1(O)CCC[C@H]1n1c(=O)c(CC(F)F)cc2cnc(NC3CCN(S(N)(=O)=O)CC3)nc21 [Compound 1, 4-({6-(2,2-difluoroethyl)-8-[(1R,2R)-2-hydroxy-2-methylcyclopentyl]-7-oxo-7,8-dihydropyrido[2,3-d]pyrimidin-2-yl}amino)piperidine-1-sulfonamide] |  |  | 10.8 | 1.5 | 79 | oxidation | 0.79
